According to US20080171710A1, “The Redox/Fyn/c-Cbl Pathway” (priority 2007, published 2008):

Legend:
Fyn [1] = format: cell-based, rat; details: EtOH exposure 30 min
c-Cbl [2] = format: cell-based, rat
Experimental: (§1) For the co-immunoprecipitation assay, anti-c-Cbl monoclonal antibody (BD PharMingen) or anti-PDGFRα polyclonal antibody (Santa Cruz Biotechnology) was added to the pre-cleared cell lysates (250 μg of total protein), and the mixtures were gently rocked for 2 h at 4° C. A total of 30 μl of protein A/G agarose was then added to the mixture followed by rotating at 4° C. overnight. The protein A/G agarose was then spun down and washed thoroughly three times. The precipitates were resolved on an 8% SDS-PAGE gel and then were subjected to Western blot analysis using an anti-p-Tyr (for c-Cbl phosphorylation assay) or ubiquitin (for PDGFR ubiquitylation assay) antibody (Santa Cruz Biotechnology).

Akt = format: cell-based, rat
Experimental: (§2) Cells were deprived of PDGF-AA for 5 h before re-exposure to PDGF-AA (10 ng/ml) for 1 h for Western blot or 6 h for luciferase assays of pathway activation. Transient transfection was performed using Fugene6 (Roche, Basel, Switzerland ) transfection solution according to the manufacturer's protocol. For the luciferase assay, cells seeded in 12-well plates were transfected with a reporter plasmid SRE-Luc(firefly) or NF-κB-Luc(firefly) (BD-Clontech, Palo Alto, Calif., United States) and an internal control plasmid pRLSV40-LUC. Analyses of luciferase activity were performed according to the protocol of the Dual Luciferase Assay System (Promega, Madison, Wis., United States), which uses an internal control of Renilla luciferase for quantification, and relative light units were measured using a luminometer.
(§3) Anti-phosphorylated Erk monoclonal, anti-Erk monoclonal, anti-TrkC polyclonal anti-Fyn polyclonal, anti-EGFR polyclonal, anti-c-Met polyclonal, anti-phospho-tyrosine monoclonal, and anti-PDGFRα polyclonal antibodies were obtained from Santa Cruz Biotechnology (Santa Cruz, Calif., United States). Anti-c-Cbl monoclonal antibody was obtained from BD PharMingen (San Diego, Calif., United States). Anti-phosphorylated Akt monoclonal and anti-Akt polyclonal antibodies were obtained from Cell Signaling Technology (Beverly, Mass., United States). Anti-phosphorylated PDGPRα polyclonal antibody was obtained from Biosource (Carlsbad, Calif., United States). The cell culture samples were collected and lysed in RAPI buffer, whereas dissected tissue samples were sonicated in RAPI buffer. Samples were resolved on SDS-PAGE gels and transferred to PVDF membranes (PerkinElmer Life Science. Wellesley, Mass., United States), After being blocked in 5% skim milk in PBS containing 0.1% Tween 20, membranes were incubated with a primary antibody, followed by incubation with an HRP-conjugated secondary antibody (Santa Cruz Biotechnology). Membranes were visualized using Western Blotting Luminol Reagent (Santa Cruz Biotechnology). All analyses of signaling pathway components were conducted in the presence of ligand for the receptor pathway under analysis (either PDGF-AA for PDGFRα, NT-3 or TrkC, HGF for c-Met, or EGF for EGFR).

Erk1/2 = format: cell-based, rat
Experimental: as §2, §3

O-2A/OPCs [3] = assay: MTT+ cells in EtOH-exposed O-2A/OPCs; format: cell-based, rat; details: cells infected with empty virus; 0.5% EtOH, 72 hrs
Experimental: Twenty-four hr after transfection, medium was changed into DMEM/F12(SATO-) supplemented with 10 ng/ml PDGF-AA. Virus supernatant was collected forty-eight hr post-transfection, filtered through 0.45 um filter to remove non-adherent cells and cellular debris, frozen in small aliquots on dry ice, and stored at −80° C. Twenty-four hr prior to infection with either DN-c-Cbl virus or backbone virus, O-2A cells were seeded. The following day, the culture media was aspirated and replaced with virus supernatant diluted 1:1 in the O-2A growth media. Media was then changed into O-2. A growth media after eight hr or overnight. Twenty-four hr after infection, the cells were collected by trypsinization and reseeded in the selective media (growth media+200 ng/ml puromycin). By the next day, all non-infected cells were floating and presumably dead or dying. The infected cells were allowed to proliferate for two days, and then collected and re-seeded for these experiments.

PDGFRα [4] = format: cell-based, rat; details: for effect on MeHg-induced reductions in levels of PDGFRα: together with MeHg; for effect on Pb- and paraquat-induced reductions in levels of PDGFRα: together with Pb (1 μM) or paraquat (5 μM)
TrkC = format: cell-based, rat
Description: as §3

EGFR = format: cell-based, rat
Description: as §3

c-Met = format: cell-based, rat
Description: as §3

PDGFRα [5] = assay: PDGFRα phosphorylation (Western blot, anti-PDGFRα(pY742)); format: cell-based, rat; details: co-exposure with MeHg
Description: The cells were then collected and lysed for Western blotting. […] Cells were lysed for Western blot analysis using anti-PDGFRα(pY742) antibody. The membranes were de-probed and then re-probed with antibody against total PDGFRα and anti-β-tubulin antibody. […]
as §3

Fyn [6] = molecular target: T1, Fyn (Rattus norvegicus, UniProt Q62844); format: cell-based
T1 construct: 250 μg of total cell lysates were immunoprecipitated with anti-Fyn antibody; endogenous in cells; host or cells: primary rat O-2A/OPCs
Experimental: Fyn kinase activity was quantified using the Universal Tyrosine Kinase Assay Kit (Takara, Madison, Wis., United States). O-2A/OPCs exposed to different treatments were solubilized with an equal volume of the extraction buffer provided with the kit for 15 min, and the resulting lysates were centrifuged at 13,000×g for 15 min at 4° C.; 250 μg of total cell lysates were immunoprecipitated with anti-Fyn antibody (Santa Cruz Biotechnology). Following immunoprecipitation, Fyn immune complexes were washed four times with extraction buffer, and then Fyn kinase activities of each sample were assayed using the kit according to the manufacturer's instructions.

MDA-MB-231 cell = MDA-MB-231 cell division by BrdU incorporation; format: cell-based; details: NAC 1 mM or PP1 200 nM with 20 μM tamoxifen, 48 hours
Experimental: It has been reported that c-Cbl induced down-regulation of EGFR is disabled in cancer cells (Hirsch DS, Shen. Y, Wu WJ, (2006) Cancer Res. Apr 1;66(7):3523-30). Thus, growth and motility inhibition of breast cancer cells by EGFR degradation is correlated with inaetivation of Cdc42. […] Cells were cultured in phenol red-free growth media and exposed to TMX (0, 1 μM, 10 μM, 20 μM and 50 μM) for 48 hours, with or without 1 mM NAC. In FIG. 22C. MDA-MB-231 cell division was analyzed by BrdU incorporation analysis. […] Percentage of Brdu+ cells from DAPI+ cells was determined in each sample.

O-2A/OPCs [7] = assay: Clonal analysis of division and differentiation; format: cell-based, rat; details: co-exposure with MeHg; 1 mM NAC or PP1
Experimental: O-2A/OPCs purified from P7 rat optic nerve were plated in. poly-L-lysine-coated 25-cm^2 flasks at clonal density with DMBM medium in the presence of 10-ng/ml PDGF as previously described. After 24-h recovery, cells were treated with different toxicants, each for 3 d, until visual inspection and immunostaining was performed. NAC was added 1 h before exposure to other toxicants for NAC pretreatment, and NAC co-exists throughout the culture period. The numbers of O-2A/OPCs and oligodendrocytes in each clone were determined by counting under fluorescent microscope. […] Experiments were performed in triplicate in at least two independent experiments.

cancer cells = assay: Cancer cell viability (MTT assays), FIG. 22; format: cell-based; details: TMX 1-50 μM, 48 hours
O-2A/OPCs [8] = assay: In vitro BrdU incorporation assay; format: cell-based, rat; details: with TMX, 2 days
Experimental: Cell proliferation was assessed by bromodeoxyuridine (BrdU) incorporation and by using the mouse anti-BrdU mAb IgGl (1:100; Sigma) to label dividing cells. Stained cells on cover slips were rinsed two times in 1×PBS, counterstained with 4′6-diamidino-2-phenylindole (DAPI; Molecular Probes, Eugene, Oreg., United States) and mounted on glass slides with Fluoromount (Molecular Probes). Staining against surface proteins was performed on cultures of living cells or on cells fixed with 2% paraformaldehyde. Staining with intracellular antibodies was performed by permeabilizing cells with ice-cold methanol for 4 min or by using 0.5% Triton for 15 mm on 2% parafomaldhyde-fixed cells. Antibody binding was detected with appropriate fluorescent dye-conjugated secondary antibodies at 10 μg/ml (Southern Biotech, Birmingham, Ala., United States) or Alexa Fluor-coupled antibodies at a concentration of 1 μg/ml (Molecular Probes), applied for 20 min. Anti-BrdU monoclonal antibody was obtained from Sigma.

PDGFRα [9] = assay: PDGFR ubiquitylation (immunoprecipitation assay); format: cell-based, rat; details: co-exposure with MeHg
Experimental: as §1

Fyn [10] = assay: Fyn protein level after RNAi (Western blot); format: cell-based, rat; details: expression of RNAi construct
Description: (§4) Anti-phosphorylated Erk monoclonal, anti-Erk monoclonal, anti-TrkC polyclonal anti-Fyn polyclonal, anti-EGFR polyclonal, anti-c-Met polyclonal, anti-phospho-tyrosine monoclonal, and anti-PDGFRα polyclonal antibodies were obtained from Santa Cruz Biotechnology (Santa Cruz, Calif., United States). Anti-c-Cbl monoclonal antibody was obtained from BD PharMingen (San Diego, Calif., United States). Anti-phosphorylated Akt monoclonal and anti-Akt polyclonal antibodies were obtained from Cell Signaling Technology (Beverly, Mass., United States). Anti-phosphorylated PDGPRα polyclonal antibody was obtained from Biosource (Carlsbad, Calif., United States). The cell culture samples were collected and lysed in RAPI buffer, whereas dissected tissue samples were sonicated in RAPI buffer. […]
(§5) siRNA target sites were selected by scanning the cDNA sequence for AA dinucleotides via siRNA target finder (Ambion, Austin, Tex., United States). Those 19-nucleotide segments that start with G immediately downstream of AA were recorded and then analyzed by BLAST search to eliminate any sequences with significant similarity to other genes. […]

c-Cbl [11] = assay: c-Cbl protein level after RNAi (Western blot); format: cell-based, rat; details: expression of RNAi construct
Description: as §4, §5

[12] = NAC 1 mM, PP1 100 nM or ICI 182,780 200 nM with TMX

T1 sequence (Q62844 whole entry): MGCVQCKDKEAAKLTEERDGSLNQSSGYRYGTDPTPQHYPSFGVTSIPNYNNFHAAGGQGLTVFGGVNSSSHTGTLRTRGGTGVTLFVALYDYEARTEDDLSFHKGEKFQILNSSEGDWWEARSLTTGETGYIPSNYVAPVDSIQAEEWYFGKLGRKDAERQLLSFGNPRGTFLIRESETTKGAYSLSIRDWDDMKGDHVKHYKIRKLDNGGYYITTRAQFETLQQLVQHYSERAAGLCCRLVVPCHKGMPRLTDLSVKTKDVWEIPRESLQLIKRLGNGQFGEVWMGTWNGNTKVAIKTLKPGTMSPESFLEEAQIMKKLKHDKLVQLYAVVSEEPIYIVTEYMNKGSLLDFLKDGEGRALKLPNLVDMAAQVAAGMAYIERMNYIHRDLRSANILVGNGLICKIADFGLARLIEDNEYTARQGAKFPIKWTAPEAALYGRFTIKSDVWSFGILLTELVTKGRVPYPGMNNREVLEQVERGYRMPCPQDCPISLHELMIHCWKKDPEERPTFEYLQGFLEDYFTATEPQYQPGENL

Molecule: CCO [EtOH, ethanol]
- Fyn phosphorylation (Fyn [1]): caused Fyn phosphorylation
- c-Cbl phosphorylation (c-Cbl [2]): caused c-Cbl phosphorylation
- PDGF-induced phosphorylation of Akt (Akt): suppression
- PDGF-induced phosphorylation of Erk1/2 (Erk1/2): suppression
- decrease in the proportion of cells that were MTT+ (O-2A/OPCs [3]): ~25%
- levels of PDGFRα (PDGFRα [4]): decreased levels
- levels of TrkC (TrkC): unaltered
- levels of EGFR (EGFR): decreased levels
- levels of c-Met (c-Met): decreased levels

Molecule: Cc1ccc(-c2nn(C(C)(C)C)c3ncnc(N)c23)cc1 [PP1]
- effect on MeHg-induced suppression of PDGFRα phosphorylation (PDGFRα [5]): protected
- effect on TMX-induced activation of c-Cbl (c-Cbl [2]; [12]): blocked
- effect on MeHg-induced c-Cbl phosphorylation (c-Cbl [2]; added 1 h before MeHg): blocked
- effect on Aβ-induced increase in phosphorylated c-Cbl (c-Cbl [2]; co-exposure with Aβ): blocked
- effect on Aβ(1-42) suppression of PDGF-mediated Erk1/2 phosphorylation (Erk1/2; co-exposure with Aβ(1-42)): blocked
- effect on MeHg-associated suppression of Erk1/2 phosphorylation (Erk1/2; co-treatment with MeHg): blocked
- effect on TMX-induced activation of Fyn (Fyn [6]; [12]): blocked
- effect on MeHg-induced Fyn activation (Fyn [6]; added 1 h before MeHg): blocked
- effect on Pb- and paraquat-induced Fyn activation (Fyn [6]; added 1 h before Pb or paraquat): prevented
- rescue from tamoxifen effect on cell division (MDA-MB-231 cell): did not result in any rescue effect
- effect on MeHg-induced suppression of cell division at the clonal level (O-2A/OPCs [7]): blocked
- effect on TMX-induced reductions in levels of PDGFRα (PDGFRα [4]; [12]): blocked
- effect on Aβ-induced reduction in PDGFRα levels (PDGFRα [4]; co-exposure with Aβ): blocked
- effect on MeHg-induced reductions in levels of PDGFRα (PDGFRα [4]): blocked
- effect on Pb- and paraquat-induced reductions in levels of PDGFRα (PDGFRα [4]): prevented
- effect on TMX effects on cancer cells (cancer cells): not blocked
- effect on TMX effect on cell proliferation (O-2A/OPCs [8]): blocked
- levels of ubiquitylated PDGFRα in MeHg-treated cells (PDGFRα [9]): marked reduction

B1: Fyn-Scr-RNAi: scrambled negative control for Fyn RNAi, SEQ ID NO: 5 and 6 (nucleic acid)
chain 1: CCCGGGTTTCAATATATTTCTCAAGAGAAAATATATTGAAACCCGGGTTTTTT
chain 2: AATTAAAAAACCCGGGTTTCAATATATTTTCTCTTGAGAAATATATTGAAACCCGGGGGCC
- levels of Fyn protein (Fyn [10]): had no effect
- effect on MeHg-induced reductions in levels of PDGFRα (PDGFRα [4]): not

B2: c-Cbl RNAi: c-Cbl siRNA construct, SEQ ID NO: 3 and 4 (nucleic acid)
chain 1: GTGCATCCCATCAGTTCTGTTCAAGAGACAGAACTGATGGGATGCACTTTTTT
chain 2: AATTAAAAAAGTGCATCCCATCAGTTCTGTCTCTTGAACAGAACTGATGGGATGCACGGCC
modifications: expressed or natural sequence
- effect on MeHg-induced reductions in levels of PDGFRα (PDGFRα [4]): protected
- effect on Pb- and paraquat-induced reductions in levels of PDGFRα (PDGFRα [4]): prevented
- levels of c-Cbl protein (c-Cbl [11]): caused a reduction

B3: Fyn-RNAi: Fyn-specific siRNA construct, SEQ ID NO: 1 and 2 (nucleic acid)
chain 1: GTTTGCTCGACTTCTTAAATTCAAGAGATTTAAGAAGTCGAGCAAACTTTTTT
chain 2: AATTAAAAAAGTTTGCTCGACTTCTTAAATCTCTTGAATTTAAGAAGTCGAGCAAACGGCC
modifications: expressed or natural sequence
- levels of Fyn protein (Fyn [10]): caused a reduction
- effect on MeHg-induced reductions in levels of PDGFRα (PDGFRα [4]): protected
- effect on Pb- and paraquat-induced reductions in levels of PDGFRα (PDGFRα [4]): prevented
- levels of c-Cbl protein (c-Cbl [11]): had no effects
